In ChEMBL document CHEMBL4004885, “Synthesis and biological activity of salinomycin-hydroxamic acid conjugates” (Bioorg Med Chem Lett, 2017):
The source made the active and inactive calls. The rule behind the calls is not given here.

What was measured:
HT-29 [1] = assay: Cytotoxicity against human HT-29 cells assessed as decrease in cell proliferation after 48 hrs by MTT assay; type: functional, cell-based; conditions: HT-29, 48 h
HGC-27 [2] = assay: Cytotoxicity against human HGC27 cells assessed as decrease in cell proliferation after 48 hrs by MTT assay; type: functional, cell-based; conditions: HGC-27, 48 h
MDA-MB-231 [3] = assay: Cytotoxicity against human MDA-MB-231 cells assessed as decrease in cell proliferation after 48 hrs by MTT assay; type: functional, cell-based; conditions: MDA-MB-231, 48 h
[4] = Chemical stability in RPMI1640 medium at 10 mg after 72 hrs by 1H NMR method; type: physicochemical
HGC-27 [5] = assay: Potency index, ratio of salinomycin IC50 to test compound IC50 for human HGC27 cells; type: functional
MDA-MB-231 [6] = assay: Potency index, ratio of salinomycin IC50 to test compound IC50 for human MDA-MB-231 cells; type: functional
MDA-MB-231 [7] = assay: Cytotoxicity against human MDA-MB-231 cells assessed as decrease in cell proliferation at 10 uM after 48 hrs in presence of salinomycin by MTT assay; type: functional, cell-based
MDA-MB-231 [8] = assay: Cytotoxicity against human MDA-MB-231 cells assessed as decrease in cell proliferation after 48 hrs in presence of salinomycin by MTT assay; type: functional, cell-based; conditions: MDA-MB-231, 48 h
HT-29 [9] = assay: Potency index, ratio of salinomycin IC50 to test compound IC50 for human HT-29 cells; type: functional

Row | SMILES | Stability [4] | IC50 (HT-29 [1]) [µM] | IC50 (HGC-27 [2]) [µM] | IC50 (MDA-MB-231 [3]) [µM] | Ratio IC50 (HGC-27 [5]) | Ratio IC50 (MDA-MB-231 [6]) | Activity (MDA-MB-231 [7]) | IC50 (MDA-MB-231 [8]) [µM] | Ratio IC50 (HT-29 [9])
1 | CC[C@@H](C(=O)[C@@H](C)[C@@H](O)[C@H](C)[C@@H]1O[C@@H]([C@@H](CC)C(=O)ONC(=O)c2ccc(Br)cc2)CC[C@@H]1C)[C@H]1O[C@]2(C=C[C@@H](O)[C@]3(CC[C@@](C)([C@H]4CC[C@](O)(CC)[C@H](C)O4)O3)O2)[C@H](C)C[C@@H]1C | Stable | 0.7 | 0.51 | 0.94 | 7 | 7 | – | – | –
2 | O=C(NO)c1ccccc1 [BENZOHYDROXAMATE] | – | – | – | – | – | – | inactive | 9.85 | –
3 | CC[C@@H](C(=O)[C@@H](C)[C@@H](O)[C@H](C)[C@@H]1O[C@@H]([C@@H](CC)C(=O)O)CC[C@@H]1C)[C@H]1O[C@]2(C=C[C@@H](O)[C@]3(CC[C@@](C)([C@H]4CC[C@](O)(CC)[C@H](C)O4)O3)O2)[C@H](C)C[C@@H]1C [SALINOMYCIN] | Stable | 1.43 | 2.57 | 6.53 to 6.91 | – | – | – | – | –
4 | C/C=C/C=C/C(=O)NOC(=O)[C@H](CC)[C@H]1CC[C@H](C)[C@H]([C@@H](C)[C@H](O)[C@H](C)C(=O)[C@H](CC)[C@H]2O[C@]3(C=C[C@@H](O)[C@]4(CC[C@@](C)([C@H]5CC[C@](O)(CC)[C@H](C)O5)O4)O3)[C@H](C)C[C@@H]2C)O1 | Stable | 2.31 | 2.63 | 3.82 | – | – | – | – | –
5 | CCCCCCCC(=O)NOC(=O)[C@H](CC)[C@H]1CC[C@H](C)[C@H]([C@@H](C)[C@H](O)[C@H](C)C(=O)[C@H](CC)[C@H]2O[C@]3(C=C[C@@H](O)[C@]4(CC[C@@](C)([C@H]5CC[C@](O)(CC)[C@H](C)O5)O4)O3)[C@H](C)C[C@@H]2C)O1 | Stable | 0.96 | 1.35 | 2.69 | 1.5 - 2.5 | 1.5 - 2.5 | – | – | 1.5 - 2.5
6 | O=C(/C=C/c1ccccc1)NO | – | – | – | – | – | – | inactive | 8.98 | –
7 | CC[C@@H](C(=O)[C@@H](C)[C@@H](O)[C@H](C)[C@@H]1O[C@@H]([C@@H](CC)C(=O)ONC(=O)c2ccccc2O)CC[C@@H]1C)[C@H]1O[C@]2(C=C[C@@H](O)[C@]3(CC[C@@](C)([C@H]4CC[C@](O)(CC)[C@H](C)O4)O3)O2)[C@H](C)C[C@@H]1C | Stable | 0.88 | 0.92 | 2.78 | – | – | – | – | –
8 | C/C=C/C=C/C(=O)NO | – | – | – | – | – | – | inactive | 7.89 | –
9 | O=C(NO)c1ccc(Br)cc1 | – | – | – | – | – | – | inactive | > 10 | –
10 | CC[C@@H](C(=O)[C@@H](C)[C@@H](O)[C@H](C)[C@@H]1O[C@@H]([C@@H](CC)C(=O)ONC(C)=O)CC[C@@H]1C)[C@H]1O[C@]2(C=C[C@@H](O)[C@]3(CC[C@@](C)([C@H]4CC[C@](O)(CC)[C@H](C)O4)O3)O2)[C@H](C)C[C@@H]1C | Stable | 2.32 | 2.25 | 3.79 | – | – | – | – | –
11 | O=C(Cc1ccccc1)NO [PHENYLACETOHYDROXAMIC ACID] | – | – | – | – | – | – | inactive | 9.72 | –
12 | CC(=O)O[C@H]1C(=O)[C@@]2(C)[C@H]([C@H](OC(=O)c3ccccc3)[C@]3(O)C[C@H](OC(=O)[C@H](O)[C@@H](NC(=O)c4ccccc4)c4ccccc4)C(C)=C1C3(C)C)[C@]1(OC(C)=O)CO[C@@H]1C[C@@H]2O [PACLITAXEL] | – | – | – | 0.08 | – | – | – | – | –
13 | O=C(Cc1ccccc1Br)NO | – | – | – | – | – | – | inactive | > 10 | –

Continued, in another order:

Row | Stability [4] | SMILES | IC50 (HT-29 [1]) [µM] | IC50 (HGC-27 [2]) [µM] | IC50 (MDA-MB-231 [3]) [µM] | Ratio IC50 (HGC-27 [5]) | Ratio IC50 (MDA-MB-231 [6]) | Activity (MDA-MB-231 [7]) | IC50 (MDA-MB-231 [8]) [µM] | Ratio IC50 (HT-29 [9])
14 | Stable | CC[C@@H](C(=O)[C@@H](C)[C@@H](O)[C@H](C)[C@@H]1O[C@@H]([C@@H](CC)C(=O)ONC(=O)/C=C/c2ccccc2)CC[C@@H]1C)[C@H]1O[C@]2(C=C[C@@H](O)[C@]3(CC[C@@](C)([C@H]4CC[C@](O)(CC)[C@H](C)O4)O3)O2)[C@H](C)C[C@@H]1C | 7.23 | 7.27 | 9.64 | – | – | – | – | –
15 | Stable | CC[C@@H](C(=O)[C@@H](C)[C@@H](O)[C@H](C)[C@@H]1O[C@@H]([C@@H](CC)C(=O)ONC(=O)CCc2ccccc2)CC[C@@H]1C)[C@H]1O[C@]2(C=C[C@@H](O)[C@]3(CC[C@@](C)([C@H]4CC[C@](O)(CC)[C@H](C)O4)O3)O2)[C@H](C)C[C@@H]1C | 0.8 | 1.05 | 1.89 | 1.5 - 7 | 1.5 - 7 | – | – | 1.5 - 7
16 | Stable | CC[C@@H](C(=O)[C@@H](C)[C@@H](O)[C@H](C)[C@@H]1O[C@@H]([C@@H](CC)C(=O)ONC(=O)c2ccccc2)CC[C@@H]1C)[C@H]1O[C@]2(C=C[C@@H](O)[C@]3(CC[C@@](C)([C@H]4CC[C@](O)(CC)[C@H](C)O4)O3)O2)[C@H](C)C[C@@H]1C | 0.85 | 0.92 | 2.26 | 1.5 - 7 | 1.5 - 7 | – | – | 1.5 - 7
17 | Stable | CC[C@@H](C(=O)[C@@H](C)[C@@H](O)[C@H](C)[C@@H]1O[C@@H]([C@@H](CC)C(=O)ONC(=O)Cc2ccccc2)CC[C@@H]1C)[C@H]1O[C@]2(C=C[C@@H](O)[C@]3(CC[C@@](C)([C@H]4CC[C@](O)(CC)[C@H](C)O4)O3)O2)[C@H](C)C[C@@H]1C | 0.9 | 1.29 | 1.01 | 1.5 - 7 | 1.5 - 7 | – | – | 1.5 - 7
18 | Stable | CC[C@@H](C(=O)[C@@H](C)[C@@H](O)[C@H](C)[C@@H]1O[C@@H]([C@@H](CC)C(=O)ONC(=O)Cc2ccccc2Br)CC[C@@H]1C)[C@H]1O[C@]2(C=C[C@@H](O)[C@]3(CC[C@@](C)([C@H]4CC[C@](O)(CC)[C@H](C)O4)O3)O2)[C@H](C)C[C@@H]1C | 0.8 | 0.76 | 0.93 | – | – | – | – | –
